Assay results from patent US20060276465A1, “1,2-di(cyclic) substituted benzene compounds” (Eisai R&D Management Co., Ltd., priority 2003, published 2006).
pIC50: −log10 of the molar value.

Key:
Jurkat cells = assay: Jurkat cell adhesion system (adhesion to immobilized human fibronectin, PMA-stimulated); type: cell-based; conditions: concentration inhibiting by 50% the PMA-stimulated increase in the number of adhered Jurkat cells on human fibronectin; 45-60 minutes, 37° C.
Method: Evaluation of Compounds in Jurkat Cell Adhesion System
<Immobilization of Human Fibronectin in 96-Well Plate>
Human fibronectin (Becton Dickinson Biosciences) was diluted with phosphate-buffered saline (hereinafter abbreviated as PBS; Sigma) to 0.1-0.01 μg/ml, and the diluted solution was added to a 96-well plate (Becton Dickinson) at 50 μl/well, and allowed to stand overnight at 4° C. On the following day, the supernatant was removed from the plate, and then PBS containing 1% bovine serum albumin (hereinafter abbreviated as BSA; Sigma) was added thereto at 100 μl/well and incubation was performed at 37° C. for 2 hours in a CO2 incubator (Hirasawa).
The supernatant was removed from each plate and Jurkat cells suspended in RPMI-1640 (Sigma) containing 1 mg/ml BSA were added at 80 μl/well for 2.5×10^5 cells/well. The compound diluted to different concentrations with RPMI-1640 containing 1 mg/ml BSA was immediately added at 10 μl/well, and then 100 nM phorbol myristate acetate (hereinafter abbreviated as PMA; Sigma) in RPMI-1640 containing 1 mg/ml BSA was added at 10 μl/well and the plate was incubated in a CO2 incubator at 37° C. for 45-60 minutes. The supernatant was removed from the plate and each well was washed several times with 100 μl/well of RPMI-1640, after which 50 mM citrate buffer (pH 5.0) containing 3.75 mM p-nitrophenol-N-acetyl-β-D-glucosaminide (Sigma) and 0.25% Triton X-100 (Sigma) were added at 60 μl/well, and the mixture was placed in a CO2 incubator and incubated at 37° C. for 45 minutes. After incubation, 50 mM glycine buffer (pH 10.4) containing 5 mM EDTA was added at 90 μl/well, and the absorbance at 405 nm was measured with an EL340 Automated Microplate Reader (BIO-TEK) to determine the adhered cell count. The concentration of each compound which inhibited the increase in the number of adhered cells by the PMA-stimulation by 50% was recorded as the IC50 (μM).

[1] = system: human peripheral blood neutrophils; assay: Human peripheral blood neutrophil adhesion system (adhesion to immobilized HUVEC, PMA-stimulated); type: cell-based; conditions: 0.75 h, concentration inhibiting by 50% the PMA-stimulated increase in the number of adhered BCECF-AM labeled neutrophils on HUVEC immobilized plate, 45 minutes, 37° C.
Method: Evaluation of Compounds in Human Peripheral Blood Neutrophil Adhesion System
<Preparation of Human Peripheral Blood Neutrophils>
To a plastic centrifugation tube containing 100 units of heparin sodium (Shimizu Pharmaceutical) was added 25 ml of fresh blood sampled from a healthy human. After adding and mixing therewith 8 ml of physiological saline (Otsuka Pharmaceutical) containing 6% Dextran (Nacalai), the mixture was allowed to stand at room temperature for 45 minutes for sedimentation of the erythrocytes. The resultant supernatant was transferred to another plastic centrifugation tube and combined with an equivalent volume of phosphate-buffered saline (hereinafter abbreviated as PBS; Sigma), and then centrifuged at 1600 rpm for 7 minutes at room temperature. The obtained hematocyte fraction was suspended in 4 ml of PBS, and the suspension was superposed on 4 ml of Ficoll-Paque™ PLUS (Amersham Biosciences). The resultant bilayer liquid was centrifuged at 2000 rpm for 30 minutes at room temperature, after which the supernatant was removed and the precipitate was suspended in 10 ml of PBS and centrifuged at 1200 rpm for 7 minutes, and the supernatant was removed. The resulting precipitate was suspended in 0.5 ml of PBS again, and then 10 ml of distilled water (Otsuka Pharmaceutical) was added, 0.5 ml of an aqueous solution containing 3 M NaCl was immediately added to restore isotonicity, the mixture was centrifuged at 1200 rpm for 7 minutes, and the obtained precipitate was suspended in PBS containing 1 mg/ml bovine serum albumin (hereinafter abbreviated as BSA; Sigma) again and stored in ice until being used for the experiment.
<Fluorescent Labeling of Human Peripheral Blood Neutrophils>
The obtained neutrophils were suspended in PBS containing 1 mg/ml BSA at 2×10^7 cells/ml. BCECF-AM (Dojin) was added to a final concentration of 5 μM, and the mixture was incubated at 37° C. for 45 minutes. It was then rinsed twice with PBS containing 1 mg/ml BSA by centrifugation, suspended again in PBS containing 1 mg/ml BSA at 5×10^7 cells/ml, and stored in ice until use.
<Preparation of HUVEC Immobilized Plate>
Human umbilical vein endothelial cells (hereinafter abbreviated as HUVEC) were suspended in MCDB131 medium (Chlorella Industries) containing 10% fetal calf serum and 30 μg/ml endothelial cell growth supplement (Becton Dickinson Bioscience). The suspension was added at 7.5×10^3 cells/well to a 96-well plate (Iwaki) immobilized with type I collagen, and cultured for 3 days in a CO2 incubator (Hirasawa). Upon confirming confluency of the cells, the supernatant was discarded, the plate was rinsed twice with PBS, and then PBS containing 0.1% glutaraldehyde (Kanto Kagaku) was added at 100 μl/well and the HUVECs were immobilized for 5 minutes. The supernatant was discarded and the plate was washed twice with PBS, and then PBS was added at 100 μl/well and the mixture was stored at 4° C. until use.
To 6.5 ml of RPMI-1640 medium (Sigma) containing 1 mg/ml of BSA were added 0.5 ml of a suspension of BCECF-AM labeled neutrophils at 5×10^7/ml stored in ice, which was mixed, and the mixture was added at 80 μl/well to a HUVEC immobilized plate. To this plate were immediately added 10 μl/well of a solution of the compound diluted at different concentrations with RPMI-1640 containing 1 mg/ml BSA, and 10 μl/well of 100 nM phorbol myristate acetate (hereinafter abbreviated as PMA; Sigma) in RPMI-1640 containing 1 mg/ml BSA, and the mixture was incubated in a CO2 incubator at 37° C. for 45 minutes. The supernatant was removed from the plate, which was then washed several times with RPMI-1640 at 100 μl/well, and then PBS containing 0.1% NP-40 (Calbiochem) was added thereto at 100 μl/well and the fluorescent intensity was measured with and ARVO™SX 1420 multi label counter (Wallac) to determine the number of adhered cells. […]

Balb/c mice = assay: DSS-induced colitis model; type: in vivo; conditions: male Balb/c mice; 1-3% DSS for 5-7 days; 30 mg/kg orally once a day for 5-7 successive days
Source text: Evaluation of Compounds in DSS-Induced Colitis Model
A 1-3% solution of dextran sulfate sodium (hereinafter abbreviated as DSS; ICN) in purified water (Otsuka Pharmaceutical) was fed freely to 6- to 7-week-old male Balb/c mice (Charles River Japan) for 5-7 days to induce colitis. Disease Activity Index (hereinafter abbreviated as DAI) scored based on fecal hardness, blood content in feces and body weight change, the number of neutrophils infiltrating the colon and the length of the colon were used as indexes to evaluate compounds. Each compound was suspended or dissolved in an aqueous solution containing 0.5% methyl cellulose (Wako), and orally administered at 30 mg/kg once a day, for 5-7 successive days.

COCCN1CCN(c2ccccc2C2CCC(C(C)(C)C)CC2)CC1.Cl (stereo not drawn) [Example 19, 1-[2-(4-t-Butylcyclohexyl)phenyl]-4-(2-methoxyethyl)piperazine hydrochloride]
pIC50 (Jurkat cells): 5.21 | pIC50 [1]: 4.94 | improvement in comparison with the DSS control group (DAI, number of neutrophils infiltrating the colon, length of the colon) (Balb/c mice): particularly good improvement
